Experiments:
[1] = test system: immune and vasculature markers in mRCC tumor sections; experiment: Phase Ib tumor immunohistochemistry (CD34/αSMA, CD8, Ki67/CD8, MHC-I, PD-L1); type: in vivo, human
Experimental: Formalin-fixed, paraffin-embedded (FFPE) tissue sections of 4 μm thickness were stained for PD-L1 with an anti-human PD-L1 rabbit monoclonal antibody (clone SP142; Ventana, Tucson, Ariz.) on an automated staining platform (BenchMark; Ventana) using a concentration of […], with signal visualization by diaminobenzidine; sections were counter-stained with haematoxylin. PD-L1 expression was evaluated on tumor cells and tumor-infiltrating immune cells. […] For tumor-infiltrating immune cells, the percentage of PD-L1-positive tumor-infiltrating immune cells occupying the tumor was determined. […] Specimens were scored as IHC 0, 1, 2, or 3 if <1%, ≥1% but <5%, ≥5% but <10%, or ≥10% of cells per area were PD-L1 positive, respectively. […]
All MHC-I IHC steps were carried out on the Ventana Discovery XT automated platform (Ventana Medical Systems; Tucson, Ariz.). […] Bound primary antibody was detected by the OMNIMAP™ anti-rabbit HRP detection kit, followed by DAB (Ventana Medical Systems; Tucson, Ariz.). […] MHC-I staining in tumor cells was scored using an H-score system. […] Relative to the overall tumor area, the percentage of cells at different staining intensities was determined by visual assessment. […] Cases were scored by two independent pathologists. […]

[2] = test system: vascular signature, Th1 chemokine, CD8 T-effector and NK cell genes in mRCC tumor biopsies; experiment: Phase Ib tumor biopsy gene expression analysis (Fluidigm PCR panel, NanoString panel); type: in vivo, human
Experimental: RNA isolation was performed as described by Schleifman et al. (PLoS One 8:e74231, 2014). Briefly, tumor FFPE sections were macro dissected to enrich for neoplastic tissue, and tissue was lysed using tumor lysis buffer and Proteinase K to allow for complete digestion and release of nucleic acids. RNA was isolated using the High Pure FFPE RNA Micro Kit (Roche Applied Sciences, Indianapolis, Ind.) according to the manufacturer's protocol. DNA was isolated using the QIAAMP® DNA FFPE Tissue Kit (Qiagen, Hilden, Germany) according to the manufacturer's protocol. RNA and DNA were stored at 280 uC until the analyses were performed.
Gene-expression analysis was performed using the BioMark HD™ real-time PCR Platform (Fluidigm) as described by Schleifman et al. (PLoS One 8:e74231, 2014). All TAQMAN® assays in the expression panel used FAM™ dye-labeled TAQMAN® minor groove binder (MGB) probes and ordered through Life Technologies either made-to-order or custom-designed, including four reference genes: SP2, GUSB, TMEM55B and VPS33B. A geometric median of the Ct values for the four reference genes (SP2, GUSB, TMEM55B and VPS33B) was calculated for each sample, and expression levels were determined using the delta Ct (ΔCt) method as follows: Ct (target Gene)2GeoMedian Ct (reference genes). Median mRNA expression levels (as measured by immunochip (iChip)) across patients on study were used as cutoffs to derive high- versus low-expression categorization. P values were determined by t test.
NanoString gene expression data were processed using the R/Bioconductor package “NanoStringQCPro.” Raw counts were adjusted by positive control counts before probe- and lane-specific background was calculated based on both negative controls and blank measurements. After background correction, counts were log2 transformed and normalized by housekeeping gene expression (TMEM55B, VPS33B, TBP, and TUBB).
In addition to safety, tolerability, and clinical activity, one key objective of the phase Ib study described above was to evaluate the mechanism of combination activity. The trial design included a run-in period with bevacizumab to specifically interrogate the effects of bevacizumab on the local tumor immune microenvironment, followed by combination therapy with immune checkpoint blockade using atezolizumab. Tumor biopsies and blood were collected prior to treatment, 15-18 days following bevacizumab, and 4-6 weeks after the atezolizumab and bevacizumab combination treatment had been initiated.
To identify tumor markers associated with bevacizumab monotherapy or combination therapy, gene expression analysis was performed using both a 90 gene PCR-based Fluidigm panel and an 800 gene custom NanoString panel. […]

Question: How did the “effect on vessels, dual staining of CD34 with αSMA” value ([1]; immature or unstable vessels (CD34+/αSMA−)) turn out when “bevacizumab: recombinant humanized anti-VEGF monoclonal antibody, also known as rhuMAb VEGF or AVASTIN®” was run?
Answer: primarily affected

Question: And the MHC-I staining ([1]; on-treatment tumor vs pre-treatment)?
Answer: increase

Question: And the “expression of genes associated with the neo-vasculature (VEGF downstream signaling)” value ([2]; both on-treatment time points vs pre-treatment, all patients)?
Answer: significantly decreased

Question: And the “VEGF transcript expression in tumors” value ([2]; normalized to housekeeping gene expression, FIG. 11)?
Answer: upregulation

Question: And the “consistent changes in FasL gene expression” value ([2]; on-treatment tumor)?
Answer: not observed

Question: And the “patients showing a significant increase in gene signatures related to Th1 signaling” value ([2]; six patients with paired biopsies)?
Answer: four of the six

Reference: patent US11402382B2, “Diagnostic and therapeutic methods for cancer” (Genentech, Inc., priority 2017, dated 2022)
